What was measured:
[1] = target: T1, ALK2 R206H (GST-tagged mutant ALK2) (Homo sapiens, UniProt Q04771, R206H); assay: ALK binding assay (LANTHASCREEN TR-FRET competitive binding, displacement of Kinase Tracer 178); conditions: ALK2 R206H, LANTHASCREEN TR-FRET competitive binding; read-out: Binding Assay (IC50)
T1 construct: purchased Carna Bioscience or ThermoFisher 09-148 or PV6232
T1 sequence (Q04771 21-509 R206H): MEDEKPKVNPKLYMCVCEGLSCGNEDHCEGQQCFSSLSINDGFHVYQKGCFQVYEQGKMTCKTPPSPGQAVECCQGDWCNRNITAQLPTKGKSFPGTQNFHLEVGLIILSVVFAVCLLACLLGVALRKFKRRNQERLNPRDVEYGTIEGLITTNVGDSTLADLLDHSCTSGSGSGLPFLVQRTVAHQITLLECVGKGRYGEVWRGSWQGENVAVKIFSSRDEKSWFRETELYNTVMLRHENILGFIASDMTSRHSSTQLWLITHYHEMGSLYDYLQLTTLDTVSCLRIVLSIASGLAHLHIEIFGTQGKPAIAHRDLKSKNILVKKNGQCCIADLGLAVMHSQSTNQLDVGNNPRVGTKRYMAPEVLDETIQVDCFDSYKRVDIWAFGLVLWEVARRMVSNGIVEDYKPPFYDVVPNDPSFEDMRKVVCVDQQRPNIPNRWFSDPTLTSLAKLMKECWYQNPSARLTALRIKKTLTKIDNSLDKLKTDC

human ALK2 R206H = target: T2, human ALK2 R206H (Homo sapiens, UniProt Q04771, R206H); assay: Cell-based ALK2-R206H cell activity assay (Smad1-Ser463/Ser465 phosphorylation by AlphaLISA in HEK293-ALK2-R206H cells); conditions: read-out: Cell Line (Cell Assay IC50)
T2 construct: expressed in transfected cells; host or cells: HEK293 (ATCC CRL1573), lentivirus transduction, blasticidin selection
T2 sequence (Q04771 21-509 R206H): T1 sequence (Q04771 21-509 R206H)
Procedure, shortened: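 Stable HEK293 cells expressing C-terminally FLAG-tagged human ALK2 R206H (lentiviral, blasticidin-selected) were treated with compounds in 10-point, 3-fold dilutions from 10 μM or 1 μM top, in duplicate. Smad1 Ser463/Ser465 phosphorylation was read by AlphaLISA.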

Question: CC(C)N1CC[C@H](c2ccc(-c3cc4c(N5CCN(C(=O)[C@H]6C[C@H](O)C6)CC5)ccnn4c3)cc2)C1 [Compound 320] was tested. Which IC50 [1] did it give?
Answer: The IC50 was less than 10 nM.

Question: And the IC50 (human ALK2 R206H)?
Answer: The IC50 was less than 100 nM.

Question: For CC(C)N1CC[C@@H](c2ccc(-c3cc4c(N5CCN(C(=O)[C@H]6C[C@H](O)C6)CC5)ccnn4c3)cc2)C1 [Compound 321], which IC50 [1] is on record?
Answer: Its IC50 is less than 10 nM.

Question: And the IC50 (human ALK2 R206H)?
Answer: The IC50 was less than 100 nM.

Question: CCN1CCC(c2ccc(-c3cc4c(N5CCN(C(=O)OC6CCC6)CC5)ccnn4c3)cc2)CC1 [Compound 322] was tested. Which IC50 [1] did it give?
Answer: Its IC50 is less than 10 nM.

Question: What about the IC50 (human ALK2 R206H) of the same compound?
Answer: Its IC50 is less than 100 nM.

Question: With CC(C)N1CCCC(O)(c2ccc(-c3cc4c(N5CCN(C(=O)C6CC6)CC5)ccnn4c3)cc2)C1 (stereo not shown) [Compound 323] as the compound, how does the IC50 [1] read?
Answer: The IC50 was less than 10 nM.

Question: And the IC50 (human ALK2 R206H)?
Answer: Its IC50 is less than 100 nM.

Question: With CC(C)N1CCC(O)(c2ccc(-c3cc4c(N5CCN(C(=O)C6CC6)CC5)ccnn4c3)cc2)CC1 [Compound 324] as the compound, how does the IC50 [1] read?
Answer: The IC50 was less than 10 nM.

Question: What about the IC50 (human ALK2 R206H) of the same compound?
Answer: Its IC50 is less than 100 nM.

Question: Which results are given for CC(C)N1CCC[C@@](O)(c2ccc(-c3cc4c(N5CCN(C(=O)C6CC6)CC5)ccnn4c3)cc2)C1 [Compound 325]?
Answer: IC50 [1]: < 10 nM; IC50 (human ALK2 R206H): < 100 nM

Question: Which results are given for CC(C)N1CCC[C@](O)(c2ccc(-c3cc4c(N5CCN(C(=O)C6CC6)CC5)ccnn4c3)cc2)C1 [Compound 326]?
Answer: IC50 [1]: < 10 nM; IC50 (human ALK2 R206H): < 100 nM

Question: Which IC50 [1] does the source give for CCN1CCN(c2ccc(-c3cc4c(N5CCN(C(=O)N6CCCC6)CC5)ccnn4c3)cc2)CC1 [Compound 327] here?
Answer: The IC50 was 10 to 50 nM.

Question: What about the IC50 (human ALK2 R206H) of the same compound?
Answer: The IC50 was 100 to 500 nM.

Question: Which IC50 [1] does the source give for CCNC(=O)N1CCN(c2ccnn3cc(-c4ccc(N5CC6(C5)CN(C(C)C)C6)cc4)cc23)CC1 [Compound 328] here?
Answer: Its IC50 is less than 10 nM.

Question: And the IC50 (human ALK2 R206H)?
Answer: The IC50 was 100 to 500 nM.

Question: What does the source list for CCN1CC2CN(c3ccnn4cc(-c5ccc(N6CCN(C(C)C)CC6)cc5)cc34)CCN2C1=O (stereo not shown) [Compound 329]?
Answer: IC50 [1]: < 10 nM; IC50 (human ALK2 R206H): 100 to 500 nM

Question: CCN1C[C@@H]2CN(c3ccnn4cc(-c5ccc(N6CCN(C(C)C)CC6)cc5)cc34)CCN2C1=O [Compound 330] was tested. Which IC50 [1] did it give?
Answer: Its IC50 is less than 10 nM.

Question: And the IC50 (human ALK2 R206H)?
Answer: The IC50 was 100 to 500 nM.

Question: CCN1CC2(C1)CN(c1ccc(-c3cc4c(N5CCN(C(=O)[C@@H]6C[C@H]6F)CC5)ccnn4c3)cc1)C2 [Compound 332] was tested. Which IC50 [1] did it give?
Answer: The IC50 was less than 10 nM.

Question: What about the IC50 (human ALK2 R206H) of the same compound?
Answer: The IC50 was less than 100 nM.

Question: For CCN1CC2(C1)CN(c1ccc(-c3cc4c(N5CCN(C(=O)[C@H]6C[C@H]6F)CC5)ccnn4c3)cc1)C2 [Compound 333], which IC50 [1] is on record?
Answer: The IC50 was less than 10 nM.

Question: And the IC50 (human ALK2 R206H)?
Answer: Its IC50 is less than 100 nM.

Question: COCCN1CCN(c2ccc(-c3cc4c(N5CCN(C(=O)C6CC6)CC5)ccnn4c3)cc2)CC1 [Compound 334] was tested. Which IC50 [1] did it give?
Answer: Its IC50 is 10 to 50 nM.

Question: What about the IC50 (human ALK2 R206H) of the same compound?
Answer: Its IC50 is 100 to 500 nM.

Question: Which results are given for CCN1CCN(c2ccc(-c3cc4c(N5CCN(C(=O)[C@H]6C[C@@H](O)C6)CC5)ccnn4c3)cc2)CC1 [Compound 335]?
Answer: IC50 [1]: > 50 nM; IC50 (human ALK2 R206H): > 500 nM

Question: Which results are given for CCN1CCN(c2ccc(-c3cc4c(N5CCN(C(=O)[C@H]6C[C@H](O)C6)CC5)ccnn4c3)cc2)CC1 [Compound 336]?
Answer: IC50 [1]: < 10 nM; IC50 (human ALK2 R206H): < 100 nM

Question: What does the source list for CCN1CCC(c2ccc(-c3cc4c(N5CCN(C(=O)N6CC(O)C6)CC5)ccnn4c3)cc2)CC1 [Compound 337]?
Answer: IC50 [1]: < 10 nM; IC50 (human ALK2 R206H): < 100 nM

Question: CCOC(=O)N1CCN(c2ccnn3cc(-c4ccc(N5CC6(C5)CN(C(C)C)C6)cc4)cc23)CC1 [Compound 338] was tested. Which IC50 [1] did it give?
Answer: Its IC50 is less than 10 nM.

Question: What about the IC50 (human ALK2 R206H) of the same compound?
Answer: Its IC50 is 100 to 500 nM.

Question: Which IC50 [1] does the source give for CCNC(=O)N1CCN(c2ccnn3cc(-c4ccc(C5CCN(C(C)C)CC5)cc4)cc23)C[C@H]1C [Compound 339] here?
Answer: The IC50 was less than 10 nM.

Question: What about the IC50 (human ALK2 R206H) of the same compound?
Answer: Its IC50 is less than 100 nM.

Question: What does the source list for CC(C)NC(=O)N1CCN(c2ccnn3cc(-c4ccc(C5CCN(C(C)C)CC5)cc4)cc23)CC1 [Compound 340]?
Answer: IC50 [1]: < 10 nM; IC50 (human ALK2 R206H): < 100 nM

Question: How did the IC50 [1] turn out when CCCNC(=O)N1CCN(c2ccnn3cc(-c4ccc(C5CCN(C(C)C)CC5)cc4)cc23)CC1 [Compound 341] was run?
Answer: The IC50 was less than 10 nM.

Question: What about the IC50 (human ALK2 R206H) of the same compound?
Answer: The IC50 was less than 100 nM.

Question: With O=C([C@H]1CC[C@H](O)CC1)N1CCN(c2ccnn3cc(-c4ccc(C5CNCCO5)cc4)cc23)CC1 (stereo partly shown) [Compound 343] as the compound, how does the IC50 [1] read?
Answer: Its IC50 is less than 10 nM.

Question: What about the IC50 (human ALK2 R206H) of the same compound?
Answer: The IC50 was 100 to 500 nM.

Question: How did the IC50 [1] turn out when CCN1CCN(c2ccc(-c3cc4c(N5CCN(C(=O)N6CC(O)C6)CC5)ccnn4c3)cc2)CC1 [Compound 344] was run?
Answer: Its IC50 is 10 to 50 nM.

Question: And the IC50 (human ALK2 R206H)?
Answer: The IC50 was 100 to 500 nM.

Question: For CC(C)N1CCC(c2ccc(-c3cc4c(N5CCN(C(=O)C6CC6)CC5)ccnn4c3)cc2F)CC1 [Compound 345], which IC50 [1] is on record?
Answer: Its IC50 is less than 10 nM.

Question: What about the IC50 (human ALK2 R206H) of the same compound?
Answer: The IC50 was less than 100 nM.

Question: Which IC50 [1] does the source give for CC(C)NC(=O)N1CCN(c2ccnn3cc(-c4ccc(N5CCN(C(C)C)CC5)cc4)cc23)CC1 [Compound 348] here?
Answer: The IC50 was less than 10 nM.

Question: And the IC50 (human ALK2 R206H)?
Answer: The IC50 was less than 100 nM.

Question: How did the IC50 [1] turn out when CC(C)N1CCN(c2ccc(-c3cc4c(N5CCN(C(=O)[C@@H]6C[C@H]6F)CC5)ccnn4c3)cc2)CC1 [Compound 349] was run?
Answer: The IC50 was less than 10 nM.

Question: What about the IC50 (human ALK2 R206H) of the same compound?
Answer: Its IC50 is less than 100 nM.

— US10233186B2, “Inhibitors of activin receptor-like kinase” (BLUEPRINT MEDICINES CORPORATION, priority 2016, dated 2019)
